In US20180325825A1 (GEMPHIRE THERAPEUTICS INC., priority 2015, published 2018):

Assays:
[1] = Pharmacokinetics of prototype combinations of atorvastatin and gemcabene after a single oral dose to male dogs; type: in vivo, male purebred beagle dogs; details: 150 mg gemcabene IR, composite data from all animals
[2] = background statement, cited from earlier work

gemcabene pharmacokinetic profile in combination with atorvastatin prototype versus administered alone [1]: essentially the same
SMILES: CC(C)(CCCCOCCCCC(C)(C)C(=O)O)C(=O)O [gemcabene, 6,6′-oxybis(2,2-dimethylhexanoic acid)]
completeness of intestinal absorption in absence or presence of food [2]: essentially unchanged | effect on the pharmacokinetics of simvastatin and atorvastatin in vivo [2]: not to significantly affect | absorption in the intestines ([2]; oral): almost complete absorption
